Experimental data reported in PubChem BioAssay AID248 (DTP/NCI, 2004).
Where “and” joins values, the source holds several entries; their conditions need not be identical. Equal values may be shown once. Inconclusive results and toxic doses are left out. No stated cut-off is given here; in the data, active means T/C of 150% or more; inactive means T/C below 125%.

Test system: L1210 leukemia ip in BDF1 mice, survival T/C
Assay: NCI In Vivo Anticancer Drug Screen. Data for tumor model L1210 Leukemia (intraperitoneal) in B6D2F1 (BDF1) mice
Details: endpoint: mean survival time, higher = longer survival
Summary of the method: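 Tumor was transplanted into mice, which were then dosed with test compound or vehicle alone. Survival was recorded for each group, and the treated figure was expressed relative to the control figure.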

[1] = dose: 100.0 mg/kg/injection, schedule: Q01DX001 (ip), vehicle: saline with Tween-80
[2] = dose: 200.0 mg/kg/injection, schedule: Q01DX001 (ip), vehicle: saline with Tween-80
[3] = dose: 100.0 mg/kg/injection, schedule: Q04DX002 (ip), vehicle: saline with Tween-80
[4] = dose: 200.0 mg/kg/injection, schedule: Q04DX002 (ip), vehicle: saline with Tween-80
[5] = dose: 400.0 mg/kg/injection, schedule: Q04DX002 (ip), vehicle: saline with Tween-80
[6] = dose: 100.0 mg/kg/injection, schedule: Q04DX003 (ip), vehicle: saline with Tween-80
[7] = dose: 200.0 mg/kg/injection, schedule: Q04DX003 (ip), vehicle: saline with Tween-80
[8] = dose: 400.0 mg/kg/injection, schedule: Q04DX003 (ip), vehicle: saline with Tween-80
[9] = dose: 100.0 mg/kg/injection, schedule: Q04DX003 (ip), vehicle: saline
[10] = dose: 200.0 mg/kg/injection, schedule: Q04DX003 (ip), vehicle: saline
[11] = dose: 400.0 mg/kg/injection, schedule: Q04DX003 (ip), vehicle: saline
[12] = dose: 100.0 mg/kg/injection, schedule: Q01DX001 (ip), vehicle: carboxymethylcellulose (CMC)
[13] = dose: 200.0 mg/kg/injection, schedule: Q01DX001 (ip), vehicle: carboxymethylcellulose (CMC)
[14] = dose: 150.0 mg/kg/injection, schedule: Q01DX001 (ip), vehicle: saline
[15] = dose: 300.0 mg/kg/injection, schedule: Q01DX001 (ip), vehicle: saline
[16] = dose: 6.25 mg/kg/injection, schedule: Q01DX009 (ip), vehicle: Klucel (hydroxypropylcellulose) (HPC)
[17] = dose: 12.5 mg/kg/injection, schedule: Q01DX009 (ip), vehicle: Klucel (hydroxypropylcellulose) (HPC)
[18] = dose: 25.0 mg/kg/injection, schedule: Q04DX002 (ip), vehicle: Klucel (hydroxypropylcellulose) (HPC)
[19] = dose: 100.0 mg/kg/injection, schedule: Q04DX003 (ip), vehicle: Klucel (hydroxypropylcellulose) (HPC)
[20] = dose: 200.0 mg/kg/injection, schedule: Q04DX003 (ip), vehicle: Klucel (hydroxypropylcellulose) (HPC)
[21] = dose: 400.0 mg/kg/injection, schedule: Q04DX003 (ip), vehicle: Klucel (hydroxypropylcellulose) (HPC)
[22] = dose: 100.0 mg/kg/injection, schedule: Q01DX009 (ip), vehicle: Klucel (hydroxypropylcellulose) (HPC)
[23] = dose: 200.0 mg/kg/injection, schedule: Q01DX009 (ip), vehicle: Klucel (hydroxypropylcellulose) (HPC)
[24] = dose: 400.0 mg/kg/injection, schedule: Q01DX009 (ip), vehicle: Klucel (hydroxypropylcellulose) (HPC)

Measured: T/C

Cn1c(=O)n(O)c(=O)c2ccccc21
inactive: dose: 50.0 mg/kg/injection, schedule: Q01DX001 (ip), vehicle: saline with Tween-80 96 % of control | [1] 109 % of control | [2] 91 % of control

COC(=O)c1c2cccccc-2c(C(=O)OC)c1N
inactive: [3] 97 % of control | [4] 91 % of control | [5] 94 % of control

O=C(NC(=S)Nc1cc(Cl)ccc1Cl)c1ccc(Cl)cc1Cl
inactive: [1] 92 % of control | dose: 100.0 mg/kg/injection, schedule: Q01DX009 (ip), vehicle: saline with Tween-80 94 % of control and 97 % of control | [3] 87 % of control and 90 % of control | [6] 97 % of control | [2] 94 % of control | dose: 200.0 mg/kg/injection, schedule: Q01DX009 (ip), vehicle: saline with Tween-80 93 % of control and 97 % of control | [4] 97 % of control and 87 % of control | [7] 92 % of control | dose: 400.0 mg/kg/injection, schedule: Q01DX001 (ip), vehicle: saline with Tween-80 94 % of control | dose: 400.0 mg/kg/injection, schedule: Q01DX009 (ip), vehicle: saline with Tween-80 103 % of control and 105 % of control | [5] 93 % of control and 101 % of control | [8] 95 % of control

O=C(NCc1ccccc1)C1C2C=CC(CC2)C1C(=O)NCc1ccccc1 (stereo not drawn)
inactive: [6] 96 % of control | [7] 96 % of control | [8] 87 % of control

CC(C)(CCC(C)(C)NCCC#N)NCCC#N
inactive: dose: 50.0 mg/kg/injection, schedule: Q01DX009 (ip), vehicle: saline 104 % of control | dose: 100.0 mg/kg/injection, schedule: Q01DX009 (ip), vehicle: saline 104 % of control | [9] 105 % of control | dose: 200.0 mg/kg/injection, schedule: Q01DX009 (ip), vehicle: saline 105 % of control | [10] 103 % of control | dose: 400.0 mg/kg/injection, schedule: Q01DX009 (ip), vehicle: saline 101 % of control | [11] 95 % of control

Cc1csc2nc(-c3ccccc3)[nH]c(=O)c12
inactive: dose: 75.0 mg/kg/injection, schedule: Q01DX001 (ip), vehicle: saline sonified 86 % of control | dose: 150.0 mg/kg/injection, schedule: Q01DX001 (ip), vehicle: saline sonified 101 % of control | dose: 300.0 mg/kg/injection, schedule: Q01DX001 (ip), vehicle: saline sonified 107 % of control

COC(=O)c1[nH]cnc1/N=N/N(C)C1CCCCC1
inactive: [12] 91 % of control | [13] 102 % of control

C/C=C(\CC)C1(CC)C(=O)NC(=O)NC1=O
inactive: dose: 75.0 mg/kg/injection, schedule: Q01DX001 (ip), vehicle: other 97 % of control | dose: 75.0 mg/kg/injection, schedule: Q01DX001 (ip), vehicle: saline 102 % of control | dose: 150.0 mg/kg/injection, schedule: Q01DX001 (ip), vehicle: other 97 % of control | [14] 103 % of control | dose: 300.0 mg/kg/injection, schedule: Q01DX001 (ip), vehicle: other 91 % of control | [15] 112 % of control

Cc1cc(=O)[nH]c2c(O)ccc([N+](=O)[O-])c12
inactive: [9] 103 % of control | [10] 103 % of control | [11] 103 % of control

SCc1ccccn1
inactive: dose: 30.0 mg/kg/injection, schedule: Q01DX015 (ip), vehicle: saline 103 % of control | dose: 60.0 mg/kg/injection, schedule: Q01DX015 (ip), vehicle: saline 94 % of control | dose: 100.0 mg/kg/injection, schedule: Q01DX001 (ip), vehicle: saline 107 % of control | dose: 120.0 mg/kg/injection, schedule: Q01DX015 (ip), vehicle: saline 120 % of control | dose: 200.0 mg/kg/injection, schedule: Q01DX001 (ip), vehicle: saline 107 % of control | dose: 240.0 mg/kg/injection, schedule: Q01DX015 (ip), vehicle: saline 111 % of control | dose: 400.0 mg/kg/injection, schedule: Q01DX001 (ip), vehicle: saline 107 % of control | dose: 400.0 mg/kg/injection, schedule: Q01DX015 (ip), vehicle: saline 90 % of control

Clc1ncc(Br)c(Cl)n1
inactive: [16] 102 % of control | [17] 102 % of control | dose: 25.0 mg/kg/injection, schedule: Q01DX009 (ip), vehicle: Klucel (hydroxypropylcellulose) (HPC) 101 % of control | dose: 100.0 mg/kg/injection, schedule: Q04DX003 (ip), vehicle: other 119 % of control | dose: 200.0 mg/kg/injection, schedule: Q04DX003 (ip), vehicle: other 90 % of control

Cc1cc[c]([Hg][I])cc1
inactive: [16] 93 % of control | [17] 94 % of control | [18] 87 % of control

CCCCC(CC)C1N(C)CCCN1C (stereo not drawn)
inactive: [6] 92 % of control | [7] 98 % of control

Cn1[nH]c(=O)c2ccccc2c1=O
inactive: dose: 8.2 mg/kg/injection, schedule: Q04DX003 (ip), vehicle: Klucel (hydroxypropylcellulose) (HPC) 104 % of control | dose: 12.5 mg/kg/injection, schedule: Q04DX003 (ip), vehicle: Klucel (hydroxypropylcellulose) (HPC) 109 % of control and 120 % of control | dose: 18.0 mg/kg/injection, schedule: Q04DX003 (ip), vehicle: Klucel (hydroxypropylcellulose) (HPC) 108 % of control | dose: 25.0 mg/kg/injection, schedule: Q04DX003 (ip), vehicle: Klucel (hydroxypropylcellulose) (HPC) 97 % of control | dose: 50.0 mg/kg/injection, schedule: Q04DX003 (ip), vehicle: Klucel (hydroxypropylcellulose) (HPC) 110 % of control | [19] 106 % of control | [20] 106 % of control | [21] 103 % of control

Nc1ccc2c(c1)Cc1cc(NC=O)ccc1-2
inactive: [12] 101 % of control | [13] 97 % of control | dose: 400.0 mg/kg/injection, schedule: Q01DX001 (ip), vehicle: carboxymethylcellulose (CMC) 92 % of control

CCOC(=O)N1CCN(C(=S)[S-])CC1.CCOC(=O)N1CCN(C(=S)[S-])CC1.[Zn]
inactive: [14] 86 % of control | [15] 87 % of control

NC(N)=N/N=C\c1ccccc1/C=N/N=C(N)N
inactive: dose: 15.0 mg/kg/injection, schedule: Q01DX Z (ip), vehicle: saline 111 % of control | dose: 15.0 mg/kg/injection, schedule: Q01DX Z (oral), vehicle: saline 116 % of control | dose: 30.0 mg/kg/injection, schedule: Q01DX Z (ip), vehicle: saline 110 % of control | dose: 30.0 mg/kg/injection, schedule: Q01DX Z (oral), vehicle: saline 111 % of control | dose: 60.0 mg/kg/injection, schedule: Q01DX Z (oral), vehicle: saline 102 % of control | dose: 120.0 mg/kg/injection, schedule: Q01DX Z (oral), vehicle: saline 111 % of control

CCCCCCCCCCCCCCCCNC(=S)NCCCCCCCCCCCCCCCC
inactive: [18] 93 % of control | dose: 50.0 mg/kg/injection, schedule: Q04DX002 (ip), vehicle: Klucel (hydroxypropylcellulose) (HPC) 90 % of control | dose: 100.0 mg/kg/injection, schedule: Q04DX002 (ip), vehicle: Klucel (hydroxypropylcellulose) (HPC) 102 % of control | [19] 95 % of control | [20] 101 % of control | [21] 88 % of control

O=C(c1ccccc1)c1ccc(Br)s1
inactive: [19] 96 % of control | [20] 97 % of control | [21] 94 % of control

S=c1[nH]n2c(=S)[nH]nc2s1
inactive: [19] 101 % of control | [20] 103 % of control | [21] 93 % of control

Cc1ccc(S(=O)(=O)NCCCCCC(=O)O)cc1
inactive: [22] 101 % of control | [19] 98 % of control | [23] 101 % of control | [20] 94 % of control | [24] 100 % of control | [21] 96 % of control

CCON=C1C(C)(C)C(C)(C)C(C)(C)C1(C)C
inactive: [22] 98 % of control | [23] 95 % of control | [24] 96 % of control

CCCCCCCCCCNc1ccc(Cl)nn1
inactive: [6] 93 % of control | [7] 93 % of control | [8] 90 % of control
